Measured values published in patent US11028090B2 (Dong Wha Pharm. Co., Ltd., priority 2017, dated 2021).
pIC50: −log10 of the molar value. Structures can show the parent of a compound that is named as a salt. Where two headings read alike, the source gives them in different places.

How the values were obtained:
[1] = system: thymus cancer cells (Ty-82 cells); test: Cytotoxicity to thymus cancer cells (Ty-82 cells), WST-1; conditions: Homo sapiens, TY82, 72 h
Method: The following experiment was performed to evaluate the cytotoxicity of [1,2,4]triazolo[4,3-a]quinoxaline derivative according to the present invention to thymus cancer cells (Ty-82 cells).
First, thymus cancer cells (Ty-82 cells) were distributed in a 96 well plate at the density of 2.5×10^4 cells/well. 24 hours later, the plated cells were treated with the compounds of the present invention dissolved in DMSO at the different concentrations ranging from 0.01 μM to 10 μM. 72 hours later, the activities of the compounds were determined using WST-1 reagent.

[2] = biological target: BRD4 (BD1+BD2) bromodomain (Homo sapiens (Human), UniProt O60885); test: BRD4 binding inhibition (AlphaScreen, GST-BRD4 vs tetraacetylated histone H4 peptide)
Method in brief: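 AlphaScreen read after 30 min dark incubation at room temperature with glutathione acceptor/streptavidin donor beads (10 μg/ml each). The beads were added to compound plus 100 nM biotin-H4 (K5,8,12,16-acetyl) peptide and 100 nM GST-BRD4 BD1+BD2 in pH 7.4 HEPES/Tween/BSA/DTT buffer.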

[3] = system: acute myelogenous leukemia cells (MV-4-11 cells); test: Cytotoxicity to acute myelogenous leukemia cells (MV-4-11 cells), CCK-8; conditions: Homo sapiens, MV4-11, 72 h
[4] = read-out: Ty-82 Cytotoxicity IC50
[5] = GST-BRD4 (BD1+BD2) vs biotinylated acetyl-histone H4 peptide, AlphaScreen, read-out: BRD4 IC50
[6] = GST-BRD4 (BD1+BD2) / biotinylated acetyl-histone H4 (Lys5,8,12,16) peptide, read-out: IC50, BRD4 binding inhibition
[7] = read-out: IC50, cytotoxicity against thymus cancer cells
[8] = read-out: IC50, cytotoxicity against acute myelogenous leukemia cells
[9] = read-out: MV-4-11 Cytotoxicity IC50

SMILES	pIC50 [2, 5]	pIC50 [2, 6]	pIC50 [1, 4]	pIC50 [1, 7]	pIC50 [3, 8]	pIC50 [3, 9]
Cc1nnc2c(NCCCCNC(=O)c3ccccc3)nc3cc(C(=O)NC(C)C)ccc3n12 [Example 205, 4-(4-benzoylamino-butylamino)-1-methyl-[1,2,4]triazolo[4,3-a]quinoxaline-7-carboxylic acid isopropylamide]	7.12	–	6.26	–	–	–
Cc1nnc2c(NCCCCNC(=O)C(C)(C)C)nc3ccccc3n12 [Example 3, 2,2-dimethyl-N-[4-(1-methyl-[1,2,4]triazolo[4,3-a]quinoxaline-4-ylamino)-butyl]-propionamide]	7.55	≥ 7.30	6.04	–	–	–
Cc1nnc2c(NCCCCNC(=O)c3ccccc3)nc3cc(NC(=O)C(C)C)ccc3n12 [Example 248, N-[4-(7-isobutyramido-1-methyl-[1,2,4]triazolo[4,3-a]quinoxaline-4-ylamino)-butyl]-benzamide]	7.27	–	6.29	–	–	–
Cc1nnc2c(NCCCCNC(=O)CC(C)C)nc3cc(N4C[C@@H](C)O[C@@H](C)C4)ccc3n12 [Example 510, N-{4-[7-(2,6-dimethyl-morpholine-4-yl)-1-methyl-[1,2,4]triazolo[4,3-a]quinoxaline-4-ylamino]-butyl}-3-methyl-butyramide]	7.24	–	–	–	–	6.47
Cc1nnc2c(NCCCCNC(=O)Cc3cccs3)nc3cc(OC(C)C)ccc3n12 [Example 451, N-[4-(7-isopropoxy-1-methyl-[1,2,4]triazolo[4,3-a]quinoxaline-4-ylamino)-butyl]-2-thiophene-2-yl-acetamide]	7.89	≥ 7.30	–	–	≥ 6.70	7.62
Cc1nnc2c(NCCCCNC(=O)C(C)(C)C)nc3cc(-c4nc5ccccc5n4C)ccc3n12 [Example 230, 2,2-dimethyl-N-{4-[1-methyl-7-(1-methyl-1H-benzoimidazole-2-yl)-[1,2,4]triazolo[4,3-a]quinoxaline-4-ylamino]-butyl}-propionamide]	7.89	≥ 7.30	–	–	–	6.24
COc1ccc2c(c1)nc(NCCCCNC(=O)NC1CCCCC1)c1nnc(C)n12 [Example 335, 1-cyclohexyl-3-[4-(7-methoxy-1-methyl-[1,2,4]triazolo[4,3-a]quinoxaline-4-ylamino)-butyl]-urea]	7.80	≥ 7.30	–	–	≥ 6.70	7.40
CCOc1cc2nc(NCCCCNC(=O)OC(C)C)c3nnc(C)n3c2cc1OCC [Example 175, [4-(7,8-diethoxy-1-methyl-[1,2,4]triazolo[4,3-a]quinoxaline-4-ylamino)-butyl]-carbamic acid isopropylester]	7.59	≥ 7.30	–	–	–	6.59
CCOc1cc2nc(NCCCCNC(=O)CC(C)C)c3nnc(C)n3c2cc1OCC [Example 177]	7.30	≥ 7.30	–	–	≥ 6.70	6.96
Cc1nnc2c(NCCCCNC(=O)CC(C)C)nc3cc(N)ccc3n12 [Example 245, N-[4-(7-amino-1-methyl-[1,2,4]triazolo[4,3-a]quinoxaline-4-ylamino)-butyl]-3-methyl-butyramide]	7.49	≥ 7.30	–	–	–	6.44
CCOc1ccc2c(c1)nc(NCCCCNC(=O)OC(C)(C)C)c1nnc(C)n12 [Example 440, [4-(7-ethoxy-1-methyl-[1,2,4]triazolo[4,3-a]quinoxaline-4-ylamino)-butyl]-carbamic acid-tert-butylester]	8.05	≥ 8.00	–	–	–	6.24
COCCOc1ccc2c(c1)nc(NCCCCNC(=O)CCC(C)C)c1nnc(C)n12 [Example 383, 4-methyl-pentanoic acid{4-[7-(2-methoxy-ethoxy)-1-methyl-[1,2,4]triazolo[4,3-a]quinoxaline-4-ylamino]-butyl}-amide]	8.52	≥ 8.00	–	–	≥ 6.70	7.14
Cc1nnc2c(NCCCCNC(=O)CC(C)(C)C)nc3cc(OC(F)(F)F)ccc3n12 [Example 272, 3,3-dimethyl-N-[4-(1-methyl-7-trifluoromethoxy-[1,2,4]triazolo[4,3-a]quinoxaline-4-ylamino)-butyl]-butyramide]	7.60	≥ 7.30	–	–	–	6.09
COc1ccc2c(c1)nc(NCCCCNC(=O)[C@@H](NC(=O)OC(C)C)C(C)C)c1nnc(C)n12 [Example 320, (S)-{1-[4-(7-methoxy-1-methyl-[1,2,4]triazolo[4,3-a]quinoxaline-4-ylamino)-butylcarbamoyl]-2-methyl-propyl}-carbamic acid isopropylester]	8.40	≥ 8.00	–	–	–	6.17

Continued by rising pIC50 [2, 5], values first:

pIC50 [2, 5]	pIC50 [2, 6]	SMILES	pIC50 [1, 4]	pIC50 [1, 7]	pIC50 [3, 8]	pIC50 [3, 9]
7.20	–	Cc1nnc2c(NCCCCNC(=O)[C@@H](N)C(C)C)nc3cc(N4CCOCC4)ccc3n12 [Example 503, 2-(S)-amino-3-methyl-N-[4-(1-methyl-7-morpholine-4-yl-[1,2,4]triazolo[4,3-a]quinoxaline-4-ylamino)-butyl]-butyramide hydrochloride]	–	–	–	6.24
7.29	–	COc1cc2nc(NCCCCNC(=O)c3ccc([N+](=O)[O-])cc3)c3nnc(C)n3c2cc1OC [Example 101, N-[4-(7,8-dimethoxy-1-methyl-[1,2,4]triazolo[4,3-a]quinoxaline-4-ylamino)-butyl]-4-nitro-benzamide]	6.06	–	–	–
7.44	≥ 7.30	Cc1nnc2c(NCCCCNC(=O)CC(C)C)nc3cc(OCC4CCCCO4)ccc3n12 (centres unmarked) [Example 343, 3-methyl-N-{4-[1-methyl-7-(tetrahydro-pyran-2-yl-methoxy)-[1,2,4]triazolo[4,3-a]quinoxaline-4-ylamino]-butyl}-butyramide]	–	–	≥ 6.70	6.92
7.47	≥ 7.30	COc1c(C)ccc2c1nc(NCCCCNC(=O)OC(C)C)c1nnc(C)n12 [Example 133, [4-(6-methoxy-1,7-dimethyl-[1,2,4]triazolo[4,3-a]quinoxaline-4-ylamino)-butyl]-carbamic acid isopropylester]	6.06	–	–	–
7.49	≥ 7.30	COc1cc2nc(NCCCCNC(=O)CC(C)C)c3nnc(C)n3c2cc1NC(=O)CC(C)C [Example 562, N-{4-[7-methoxy-1-methyl-8-(3-methyl-butyrylamino)-[1,2,4]triazolo[4,3-a]quinoxaline-4-ylamino]-butyl}-3-methyl-butyramide]	–	–	–	6.43
7.59	≥ 7.30	COCCOc1cc2nc(NCCCCNC(=O)c3ccccc3Cl)c3nnc(C)n3c2cc1OCCOC [Example 171, N-{4-[7,8-bis-(2-methoxy-ethoxy)-1-methyl-[1,2,4]triazolo[4,3-a]quinoxaline-4-ylamino]-butyl}-2-chloro-benzamide]	6.24	–	–	–
7.64	≥ 7.30	Cc1nnc2c(NCCCCNC(=O)OC(C)(C)C)nc3cc(NC(=O)C(C)C)ccc3n12 [Example 246, [4-(7-isobutyramido-1-methyl-[1,2,4]triazolo[4,3-a]quinoxaline-4-ylamino)-butyl]-carbamic acid-tert-butylester]	6.31	≥ 6.30	–	–
7.66	≥ 7.30	Cc1nnc2c(NCCCCNC(=O)CC(C)C)nc3cc(OCc4ccccc4)ccc3n12 [Example 346, N-[4-(7-benzyloxy-1-methyl-[1,2,4]triazolo[4,3-a]quinoxaline-4-ylamino)-butyl]-3-methyl-butyramide]	–	–	≥ 6.70	7.10
7.70	≥ 7.30	Cc1nnc2c(NCCCCNC(=O)CC(C)C)nc3ccccc3n12 [Example 7, 3-methyl-N-[4-(1-methyl-[1,2,4]triazolo[4,3-a]quinoxaline-4-ylamino)-butyl]-butyramide]	6.59	≥ 6.30	–	–
7.77	≥ 7.30	COc1ccc2nc(NCCCCNC(=O)c3ccc(C)nc3Cl)c3nnc(C)n3c2c1 [Example 129]	6.08	–	–	–
7.82	≥ 7.30	COc1ccc2c(c1)nc(NCCCCNC(=O)[C@H](OC)C(C)C)c1nnc(C)n12 [Example 300, 2-(R)-methoxy-N-[4-(7-methoxy-1-methyl-[1,2,4]triazolo[4,3-a]quinoxaline-4-ylamino)-butyl]-3-methyl-butyramide]	–	–	–	6.51
7.89	≥ 7.30	CCOc1ccc2c(c1)nc(NCCCCNC(=O)OC1CCCC1)c1nnc(C)n12 [Example 445, [4-(7-ethoxy-1-methyl-[1,2,4]triazolo[4,3-a]quinoxaline-4-ylamino)-butyl]-carbamic acid cyclopentylester]	–	–	≥ 6.70	7.00
8.22	≥ 8.00	COc1c(C)ccc2c1nc(NCCCCNC(=O)[C@@H](O)C(C)C)c1nnc(C)n12 [Example 137, 2-(S)-hydroxy-N-[4-(6-methoxy-1,7-dimethyl-[1,2,4]triazolo[4,3-a]quinoxaline-4-ylamino)-butyl]-3-methyl-butyramide]	–	–	–	6.43
8.30	≥ 8.00	COc1cc2nc(NCCCCNC(=O)CCC(C)C)c3nnc(C)n3c2cc1OC [Example 79, 4-methyl-pentanoic acid [4-(7,8-dimethoxy-1-methyl-[1,2,4]triazolo[4,3-a]quinoxaline-4-ylamino)-butyl]-amide]	–	–	≥ 6.70	7.15
